According to ChEMBL document CHEMBL5321219, “Selective degradation of cellular BRD3 and BRD4-L promoted by PROTAC molecules in six cancer cell lines” (Eur J Med Chem, 2023):
Activity calls are given as the source filed them. The calls are words filed in the database; no cut-off is given here.

What was measured:
[1] = biological target: T1, Protein cereblon/Bromodomain-containing protein 3 (Homo sapiens) (UniProt Q15059+Q96SW2); assay: PROTAC activity at CRBN/BRD3 in human MM1.S cells assessed as induction of protein degradation at 30 nM by Western blot analysis; format: cell-based; details: TDE = time-dependent effect
T1 sequence (Q15059 2-726 limits assumed): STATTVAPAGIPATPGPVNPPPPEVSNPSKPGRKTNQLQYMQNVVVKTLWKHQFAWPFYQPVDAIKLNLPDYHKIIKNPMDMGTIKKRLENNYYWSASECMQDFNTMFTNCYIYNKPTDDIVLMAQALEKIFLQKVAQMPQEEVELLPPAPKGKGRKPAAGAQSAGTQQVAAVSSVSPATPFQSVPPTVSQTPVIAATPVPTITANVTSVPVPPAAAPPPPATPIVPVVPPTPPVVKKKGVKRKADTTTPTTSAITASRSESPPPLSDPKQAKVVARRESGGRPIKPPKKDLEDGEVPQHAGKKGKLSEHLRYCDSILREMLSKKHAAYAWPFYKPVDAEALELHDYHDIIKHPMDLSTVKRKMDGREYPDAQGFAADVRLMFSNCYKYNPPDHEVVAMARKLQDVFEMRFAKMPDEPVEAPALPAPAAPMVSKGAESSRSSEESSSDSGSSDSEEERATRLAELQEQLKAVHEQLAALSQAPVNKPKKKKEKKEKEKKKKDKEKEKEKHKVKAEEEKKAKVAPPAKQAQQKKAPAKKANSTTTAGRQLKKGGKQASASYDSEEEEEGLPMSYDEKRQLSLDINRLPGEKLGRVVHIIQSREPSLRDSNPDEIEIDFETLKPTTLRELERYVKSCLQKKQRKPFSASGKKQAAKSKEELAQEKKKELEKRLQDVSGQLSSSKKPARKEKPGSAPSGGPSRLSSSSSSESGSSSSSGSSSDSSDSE
T1 sequence (Q96SW2 whole entry partner): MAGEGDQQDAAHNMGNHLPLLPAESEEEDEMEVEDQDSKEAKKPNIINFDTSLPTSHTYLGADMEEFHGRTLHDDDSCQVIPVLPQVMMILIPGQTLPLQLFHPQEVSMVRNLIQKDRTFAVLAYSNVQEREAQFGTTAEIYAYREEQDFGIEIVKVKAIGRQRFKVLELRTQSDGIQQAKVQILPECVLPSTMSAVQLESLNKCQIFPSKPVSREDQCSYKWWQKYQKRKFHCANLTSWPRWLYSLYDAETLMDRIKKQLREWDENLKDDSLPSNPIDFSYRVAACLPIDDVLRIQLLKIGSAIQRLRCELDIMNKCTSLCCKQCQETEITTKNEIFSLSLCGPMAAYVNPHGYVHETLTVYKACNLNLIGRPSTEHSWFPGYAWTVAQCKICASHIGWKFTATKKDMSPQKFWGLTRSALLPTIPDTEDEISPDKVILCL

[2] = biological target: T2, Protein cereblon/Bromodomain-containing protein 2 (Homo sapiens) (UniProt P25440+Q96SW2); assay: PROTAC activity at CRBN/BRD2 in human MCF7 cells assessed as induction of protein degradation at 1 to 300 nM measured after 24 hrs by Western blot analysis; format: cell-based; details: dose 1-300 nM
T2 sequence (P25440 whole entry, looked up): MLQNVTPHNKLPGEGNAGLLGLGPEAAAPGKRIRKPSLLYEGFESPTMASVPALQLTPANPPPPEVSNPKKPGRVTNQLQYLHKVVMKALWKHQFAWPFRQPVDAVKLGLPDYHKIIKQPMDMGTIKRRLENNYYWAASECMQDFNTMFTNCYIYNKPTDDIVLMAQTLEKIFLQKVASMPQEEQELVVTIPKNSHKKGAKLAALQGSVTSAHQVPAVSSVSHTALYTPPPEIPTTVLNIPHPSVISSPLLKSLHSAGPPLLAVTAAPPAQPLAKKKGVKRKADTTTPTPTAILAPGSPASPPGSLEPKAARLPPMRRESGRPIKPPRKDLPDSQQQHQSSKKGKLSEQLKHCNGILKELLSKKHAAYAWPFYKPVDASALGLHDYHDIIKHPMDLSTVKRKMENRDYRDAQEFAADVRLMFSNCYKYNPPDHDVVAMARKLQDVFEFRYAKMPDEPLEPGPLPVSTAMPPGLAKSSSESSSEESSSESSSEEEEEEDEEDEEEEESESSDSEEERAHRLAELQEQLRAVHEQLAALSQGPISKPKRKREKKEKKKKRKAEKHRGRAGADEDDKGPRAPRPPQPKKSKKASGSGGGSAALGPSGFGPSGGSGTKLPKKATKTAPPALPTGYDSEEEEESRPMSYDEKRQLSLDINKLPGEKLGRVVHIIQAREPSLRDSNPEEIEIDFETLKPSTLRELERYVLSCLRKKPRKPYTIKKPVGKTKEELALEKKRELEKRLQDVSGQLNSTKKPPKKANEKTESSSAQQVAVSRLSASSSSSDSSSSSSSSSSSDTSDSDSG
T2 sequence (Q96SW2 whole entry, looked up): as the sequence (Q96SW2 whole entry partner) above

MM1.S [3] = assay: Induction of cell cycle arrest in human MM1.S cells assessed as accumulation of cells at S phase at 10 nM incubated for 24 hrs by flow cytometry analysis (reference value: 22.37%); format: functional
[4] = biological target: T3, Protein cereblon/Bromodomain-containing protein 4 (Homo sapiens) (UniProt O60885+Q96SW2); assay: PROTAC activity at CRBN/BRD4-S in human MM1.S cells assessed as induction of protein degradation at 0.1 to 30 nM measured after 24 hrs by Western blot analysis; format: cell-based; details: dose 0.1-30 nM
T3 sequence (Q96SW2 whole entry, looked up, other chains not shown): as the sequence (Q96SW2 whole entry partner) above

MM1.S [5] = assay: Induction of cell cycle arrest in human MM1.S cells assessed as accumulation of cells at G2 phase at 3 nM incubated for 24 hrs by flow cytometry analysis (reference value: 14.68%); format: functional
[6] = biological target: T1, Protein cereblon/Bromodomain-containing protein 3 (Homo sapiens); assay: PROTAC activity at CRBN/BRD3 in human HGC-27 cells assessed as induction of protein degradation at 30 nM measured after 8 to 24 hrs by Western blot analysis; format: cell-based; details: time 8-24 hrs
A549 = assay: Antiproliferative activity against human A549 cells assessed as cell growth inhibition measured after 4 days by CCK-8 assay; format: functional, cell-based; details: A549, 96 h
[7] = biological target: T1, Protein cereblon/Bromodomain-containing protein 3 (Homo sapiens); assay: PROTAC activity at CRBN/BRD3 in human A549 cells assessed as induction of protein degradation measured after 24 hrs by Western blot analysis; format: cell-based; details: dose 3-1000 nM
MM1.S [8] = assay: Induction of cell cycle arrest in human MM1.S cells assessed as accumulation of cells at G1 phase at 100 nM incubated for 24 hrs by flow cytometry analysis (reference value: 56.32%); format: functional
MM1.S [9] = assay: Induction of cell cycle arrest in human MM1.S cells assessed as accumulation of cells at S phase at 1 nM incubated for 24 hrs by flow cytometry analysis (reference value: 22.37%); format: functional
[10] = biological target: T2, Protein cereblon/Bromodomain-containing protein 2 (Homo sapiens); assay: PROTAC activity at CRBN/BRD2 in human HGC-27 cells assessed as induction of protein degradation at 0.1 to 30 nM measured after 24 hrs by Western blot analysis; format: cell-based; details: dose 0.1-30 nM
[11] = biological target: T3, Protein cereblon/Bromodomain-containing protein 4 (Homo sapiens); assay: PROTAC activity at CRBN/BRD4-S in human HeLa cells assessed as induction of protein degradation at 1 to 300 nM measured after 24 hrs by Western blot analysis; format: cell-based; details: dose 1-300 nM
MM1.S [12] = assay: Induction of cell cycle arrest in human MM1.S cells assessed as accumulation of cells at S phase at 300 nM incubated for 24 hrs by flow cytometry analysis (reference value: 22.37%); format: functional
MM1.S [13] = assay: Induction of cell cycle arrest in human MM1.S cells assessed as accumulation of cells at G1 phase at 10 nM incubated for 24 hrs by flow cytometry analysis (reference value: 56.32%); format: functional
MM1.S [14] = assay: Induction of cell cycle arrest in human MM1.S cells assessed as accumulation of cells at G2 phase at 30 nM incubated for 24 hrs by flow cytometry analysis (reference value: 14.68%); format: functional
[15] = biological target: T1, Protein cereblon/Bromodomain-containing protein 3 (Homo sapiens); assay: PROTAC activity at CRBN/BRD3 in human HGC-27 cells assessed as induction of protein degradation measured after 24 hrs by Western blot analysis; format: cell-based; details: dose 0.1-30 nM
[16] = biological target: Bromodomain-containing protein 3 (Homo sapiens, UniProt Q15059); assay: Binding affinity to recombinant human BRD3 BD1 (24 to 144 residues) assessed as inhibition constant by fluorescence polarization binding assay
Bromodomain-containing protein 3, sequence (Q15059 whole entry, the tested form may be a part): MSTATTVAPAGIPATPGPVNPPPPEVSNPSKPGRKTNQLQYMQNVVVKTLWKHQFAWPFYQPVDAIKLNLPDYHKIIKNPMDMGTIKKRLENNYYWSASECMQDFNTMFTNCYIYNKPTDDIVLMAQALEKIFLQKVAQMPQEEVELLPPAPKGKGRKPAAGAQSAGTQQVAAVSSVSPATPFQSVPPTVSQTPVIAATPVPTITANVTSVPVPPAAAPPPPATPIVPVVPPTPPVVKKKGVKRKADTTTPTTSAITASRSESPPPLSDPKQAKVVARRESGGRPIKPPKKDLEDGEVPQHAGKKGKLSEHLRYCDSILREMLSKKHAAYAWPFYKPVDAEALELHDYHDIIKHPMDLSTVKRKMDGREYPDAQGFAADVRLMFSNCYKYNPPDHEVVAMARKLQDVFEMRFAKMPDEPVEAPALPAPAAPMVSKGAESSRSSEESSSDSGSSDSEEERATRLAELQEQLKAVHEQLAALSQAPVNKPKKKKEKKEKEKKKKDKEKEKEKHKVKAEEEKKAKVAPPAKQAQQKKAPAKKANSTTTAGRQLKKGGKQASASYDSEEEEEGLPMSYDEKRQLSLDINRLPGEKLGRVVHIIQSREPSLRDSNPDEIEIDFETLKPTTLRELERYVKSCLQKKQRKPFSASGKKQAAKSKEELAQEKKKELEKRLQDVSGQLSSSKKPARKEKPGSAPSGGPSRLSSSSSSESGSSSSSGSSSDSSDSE

[17] = biological target: T1, Protein cereblon/Bromodomain-containing protein 3 (Homo sapiens); assay: PROTAC activity at CRBN/BRD3 in human MV4-11 cells assessed as induction of protein degradation at 0.1 to 10 nM measured after 24 hrs by Western blot analysis; format: cell-based; details: dose 0.1-10 nM
[18] = biological target: T2, Protein cereblon/Bromodomain-containing protein 2 (Homo sapiens); assay: PROTAC activity at CRBN/BRD2 in human A549 cells assessed as induction of protein degradation at 3 to 1000 nM measured after 24 hrs by Western blot analysis; format: cell-based; details: dose 3-1000 nM
[19] = biological target: T3, Protein cereblon/Bromodomain-containing protein 4 (Homo sapiens); assay: PROTAC activity at CRBN/BRD4-S in human U-937 cells assessed as induction of protein degradation by Western blot analysis; format: cell-based
[20] = biological target: T1, Protein cereblon/Bromodomain-containing protein 3 (Homo sapiens); assay: PROTAC activity at CRBN/BRD3 in human MM1.S cells assessed as induction of protein degradation at 30 nM pretreated with 0.2 to 10 uM MG132 for 2 hrs followed by compound addition and measured after 4 hrs by Western blot analysis; format: cell-based
[21] = biological target: T1, Protein cereblon/Bromodomain-containing protein 3 (Homo sapiens); assay: PROTAC activity at CRBN/BRD3 in human MCF7 cells assessed as induction of protein degradation measured after 24 hrs by Western blot analysis; format: cell-based; details: dose 1-300 nM
[22] = biological target: T1, Protein cereblon/Bromodomain-containing protein 3 (Homo sapiens); assay: PROTAC activity at CRBN/BRD3 in human HeLa cells assessed as induction of protein degradation measured after 24 hrs by Western blot analysis; format: cell-based; details: dose 1-300 nM
MM1.S [23] = assay: Induction of cell cycle arrest in human MM1.S cells assessed as accumulation of cells at S phase at 100 nM incubated for 24 hrs by flow cytometry analysis (reference value: 22.37%); format: functional
[24] = biological target: T1, Protein cereblon/Bromodomain-containing protein 3 (Homo sapiens); assay: PROTAC activity at CRBN/BRD3 in human U-937 cells assessed as induction of protein degradation by Western blot analysis; format: cell-based
[25] = biological target: T3, Protein cereblon/Bromodomain-containing protein 4 (Homo sapiens); assay: PROTAC activity at CRBN/BRD4-S in human MV4-11 cells assessed as induction of protein degradation at 0.1 to 30 nM measured after 24 hrs by Western blot analysis; format: cell-based; details: dose 0.1-30 nM
[26] = biological target: T3, Protein cereblon/Bromodomain-containing protein 4 (Homo sapiens); assay: PROTAC activity at CRBN/BRD4-L in human HepG2 cells assessed as induction of protein degradation measured after 24 hrs by Western blot analysis; format: cell-based; details: dose 10-3000 nM
MM1.S [27] = assay: Induction of cell cycle arrest in human MM1.S cells assessed as accumulation of cells at G2 phase at 100 nM incubated for 24 hrs by flow cytometry analysis (reference value: 14.68%); format: functional
MM1.S [28] = assay: Induction of cell cycle arrest in human MM1.S cells assessed as accumulation of cells at S phase at 30 nM incubated for 24 hrs by flow cytometry analysis (reference value: 22.37%); format: functional
[29] = biological target: T3, Protein cereblon/Bromodomain-containing protein 4 (Homo sapiens); assay: PROTAC activity at CRBN/BRD4-S in human MCF7 cells assessed as induction of protein degradation at 1 to 300 nM measured after 24 hrs by Western blot analysis; format: cell-based; details: dose 1-300 nM
MM1.S [30] = assay: Downregulation of BRD4 expression in human MM1.S cells by proteomic analysis; format: functional, cell-based
MM1.S [31] = assay: Induction of cell cycle arrest in human MM1.S cells assessed as accumulation of cells at G2 phase at 1 nM incubated for 24 hrs by flow cytometry analysis (reference value: 14.68%); format: functional
[32] = biological target: T3, Protein cereblon/Bromodomain-containing protein 4 (Homo sapiens); assay: PROTAC activity at CRBN/BRD4-S in human HGC-27 cells assessed as induction of protein degradation at 0.1 to 30 nM measured after 24 hrs by Western blot analysis; format: cell-based; details: dose 0.1-30 nM
HGC-27 = assay: Antiproliferative activity against human HGC-27 cells assessed as cell growth inhibition measured after 4 days by CCK-8 assay; format: functional, cell-based; details: HGC-27, 96 h

SMILES: Cc1nnc2n1-c1ccc(-c3ccc(CNCCCCc4cccc5c4CN(C4CCC(=O)NC4=O)C5=O)cc3)cc1C(Nc1ccc(Cl)cc1)CC2 (centres undefined)
- Activity [1]: Tde
- Activity [2]: inactive
- Activity (MM1.S [3]): 14.97%
- Activity [4]: inactive
- Activity (MM1.S [5]): 20.58%
- Activity [6]: Active
- IC50 (A549): 14300 nM
- Activity [7]: Dose-Dependent Effect
- Activity (MM1.S [8]): 65.67%
- Activity (MM1.S [9]): 21.35%
- Activity [10]: inactive
- Activity [11]: inactive
- Activity (MM1.S [12]): 13.79%
- Activity (MM1.S [13]): 63.9%
- Activity (MM1.S [14]): 15.18%
- Activity [15]: Dose-Dependent Effect
- Ki [16]: 12 nM
- Activity [17]: inactive
- Activity [18]: inactive
- Activity [19]: Dose-Dependent Effect
- Activity [20]: inactive
- Activity [21]: Dose-Dependent Effect
- Activity [22]: Dose-Dependent Effect
- Activity (MM1.S [23]): 13.23%
- Activity [24]: inactive
- Activity [25]: Active
- Activity [26]: Dose-Dependent Effect
- Activity (MM1.S [27]): 16.63%
- Activity (MM1.S [28]): 15.21%
- Activity [29]: inactive
- Activity (MM1.S [30]): Active
- Activity (MM1.S [31]): 15.24%
- Activity [32]: inactive
- IC50 (HGC-27): 2350 nM
